ChEMBL document CHEMBL5505982, “Design, synthesis, biological evaluation and in silico studies of novel quinoline derivatives as potential radioprotective molecules targeting the TLR2 and p53 pathways” (Eur J Med Chem, 2024)
Active and inactive are the calls of the source. The rule behind the calls is not given here.

Key:
AHH-1 [1] = assay: Cytotoxicity against human AHH-1 cells assessed as inhibition of cell growth incubated for 24 hrs by CCK-8 assay; assay type: functional, cell-based; conditions: AHH-1, 24 h
AHH-1 [2] = assay: Anti-iradiation activity against human AHH-1 cells assessed as cell viability at 10 micromol preincubated with compound for 24 hrs followed by irradiation with 8 Gy and measured after 24 hrs by CCK-8 assay; assay type: functional; conditions: dose 10 µmol; time 48 hrs
Mus musculus [3] = assay: Radioprotective activity in irradiated C57BL/6J mouse model assessed as increase in platelets count at 300 mg/kg, ip preincubated with compound for 15 to 1440 mins followed by irradiation with 6.5 Gy and measured after 2 days of radiation; assay type: functional, organism-based; conditions: time 15-4320 min
Mus musculus [4] = assay: Radioprotective activity in irradiated C57BL/6J mouse model assessed as increase in HGB count at 300 mg/kg, ip preincubated with compound for 15 to 1440 mins followed by irradiation with 6.5 Gy and measured after 10 days of radiation relative to Ex-rad/control; assay type: functional, organism-based; conditions: time 15-15840 min
AHH-1 [5] = assay: Radioprotective activity against radiation-induced DNA damage in human AHH-1 cells assessed as reduction in gamma-H2AX foci in nucleus preincubated with compound for 24 hrs followed by irradiation with 1.175 Gy/min and measured after 2 hrs of radiation by fluorescence microscopic analysis; assay type: functional, cell-based; conditions: time 26.0 hrs
Mus musculus [6] = assay: Radioprotective activity against radiation-induced intestinal injury C57BL/6J mouse model assessed as increase in splenic index at 300 mg/kg, ip preincubated with compound for 15 to 1440 mins followed by irradiation with 13 Gy and measured after 84 hrs of radiation by H and E staining based analysis; assay type: functional, organism-based; conditions: time 15-6480 min
AHH-1 [7] = assay: Induction of apoptosis in human AHH-1 cells assessed as viable cells preincubated with compound for 24 hrs followed by irradiation with 4 Gy and measured after 24 hrs of radiation by Annexin V-FITC/PI staining based flow cytometry analysis (reference value: 66.9 %); assay type: functional; conditions: time 48 hrs
AHH-1 [8] = assay: Induction of apoptosis in human AHH-1 cells assessed as early apoptotic cells preincubated with compound for 24 hrs followed by irradiation with 4 Gy and measured after 24 hrs of radiation by Annexin V-FITC/PI staining based flow cytometry analysis (reference value: 14.3%); assay type: functional; conditions: time 48 hrs
AHH-1 [9] = assay: Induction of apoptosis in human AHH-1 cells assessed as late apoptotic cells preincubated with compound for 24 hrs followed by irradiation with 4 Gy and measured after 24 hrs of radiation by Annexin V-FITC/PI staining based flow cytometry analysis (reference value: 17.7%); assay type: functional; conditions: time 48 hrs
AHH-1 [10] = assay: Induction of apoptosis in human AHH-1 cells assessed as late apoptotic cells preincubated with compound for 24 hrs followed by irradiation with 6 Gy and measured after 24 hrs of radiation by Annexin V-FITC/PI staining based flow cytometry analysis (reference value: 29.8%); assay type: functional; conditions: time 48 hrs
AHH-1 [11] = assay: Induction of apoptosis in human AHH-1 cells assessed as necrotic cells preincubated with compound for 24 hrs followed by irradiation with 6 Gy and measured after 24 hrs of radiation by Annexin V-FITC/PI staining based flow cytometry analysis (reference value: 3.71%); assay type: functional; conditions: time 48 hrs
AHH-1 [12] = assay: Induction of apoptosis in human AHH-1 cells assessed as viable cells preincubated with compound for 24 hrs followed by irradiation with 8 Gy and measured after 24 hrs of radiation by Annexin V-FITC/PI staining based flow cytometry analysis (reference value: 45.1%); assay type: functional; conditions: time 48 hrs
Toll-like receptor 2 = Toll-like receptor 2 (Homo sapiens, UniProt O60603); assay: Binding affinity to TLR2 (unknown origin) by SPR analysis; conditions: filed as agonist, dose 3-100 µM
Chain of Toll-like receptor 2 (O60603 whole entry): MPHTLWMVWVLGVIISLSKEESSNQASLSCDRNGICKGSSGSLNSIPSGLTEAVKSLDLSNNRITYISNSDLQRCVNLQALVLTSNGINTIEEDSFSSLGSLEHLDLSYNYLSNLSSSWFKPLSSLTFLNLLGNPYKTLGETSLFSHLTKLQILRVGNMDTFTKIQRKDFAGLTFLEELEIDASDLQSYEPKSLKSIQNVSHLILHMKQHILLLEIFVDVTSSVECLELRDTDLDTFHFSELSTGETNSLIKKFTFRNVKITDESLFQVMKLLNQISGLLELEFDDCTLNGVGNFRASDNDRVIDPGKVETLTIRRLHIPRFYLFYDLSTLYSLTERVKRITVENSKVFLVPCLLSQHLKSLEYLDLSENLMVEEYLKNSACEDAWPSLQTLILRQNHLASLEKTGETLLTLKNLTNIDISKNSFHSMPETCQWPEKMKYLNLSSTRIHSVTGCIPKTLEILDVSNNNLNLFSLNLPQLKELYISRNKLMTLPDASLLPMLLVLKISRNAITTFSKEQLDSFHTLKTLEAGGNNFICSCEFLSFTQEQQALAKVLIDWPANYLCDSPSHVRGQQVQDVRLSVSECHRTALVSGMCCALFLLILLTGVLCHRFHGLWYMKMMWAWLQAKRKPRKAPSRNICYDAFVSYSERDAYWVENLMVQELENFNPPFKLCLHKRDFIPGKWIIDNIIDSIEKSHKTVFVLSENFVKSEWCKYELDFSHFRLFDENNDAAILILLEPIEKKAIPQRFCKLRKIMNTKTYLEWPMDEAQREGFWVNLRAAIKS

With [O-][S+](Cc1ccc(F)cc1)c1ccc2cc(Br)ccc2n1 (stereo not drawn) the IC50 (AHH-1 [1]) was 154 µM, the Activity (AHH-1 [2]) was 55.86% and the Activity (Mus musculus [3]) was “Active”. For the same compound, the Activity (Mus musculus [4]) was “Active”, the Activity (AHH-1 [5]) was “Active” and the Activity (Mus musculus [6]) was “Active”. It also gave an Activity (AHH-1 [7]) of 72.4%, an Activity (AHH-1 [8]) of 14% and an Activity (AHH-1 [9]) of 12.2%. The Activity (AHH-1 [10]) was 16.2%, the Activity (AHH-1 [11]) was 2.55% and the Activity (AHH-1 [12]) was 67.3%. The Activity (Toll-like receptor 2) was “Dose-Dependent Effect”.
